From ChEMBL document CHEMBL5303573, “Mapping human microbiome drug metabolism by gut bacteria and their genes” (Nature, 2019) come the findings set out here.

A short description of data set [1]: The drug is tested on Bacteroides pectinophilus strain: ATCC43243 for biotransformation. The drug concentrations were measured before and after a 12-h incubation by liquid-chromatography-coupled mass spectrometry (LC–MS). The following applies: 2 µM.
For data set [2] the following is noted: bacteroides thetaiotaomicron, 12 h, 2 µM.
Description: The drug is tested on Bacteroides thetaiotaomicron strain: 3731 for biotransformation. The drug concentrations were measured before and after a 12-h incubation by liquid-chromatography-coupled mass spectrometry (LC–MS)
A short description of data set [3]: The drug is tested on Parabacteroides merdae strain: ATCC43184 for biotransformation. The drug concentrations were measured before and after a 12-h incubation by liquid-chromatography-coupled mass spectrometry (LC–MS). The following applies: 2 µM.
Data set [4] can be described thus: The drug is tested on Bifidobacterium longum subsp. Infantis strain: CCUG52486 for biotransformation. The drug concentrations were measured before and after a 12-h incubation by liquid-chromatography-coupled mass spectrometry (LC–MS). The note with it: 2 µM.
Data set [5] in a line: The drug is tested on Clostridium scindens strain: ATCC35704 for biotransformation. The drug concentrations were measured before and after a 12-h incubation by liquid-chromatography-coupled mass spectrometry (LC–MS). The following applies: 2 µM.
Data set [6] is described as follows: The drug is tested on Collinsella intestinalis strain: DSM13280 for biotransformation. The drug concentrations were measured before and after a 12-h incubation by liquid-chromatography-coupled mass spectrometry (LC–MS). The following applies: 2 µM.
The conditions of data set [7]: bacteroides thetaiotaomicron, 12 h, 2 µM. The source holds these as a separate data set.
Description: The drug is tested on Bacteroides thetaiotaomicron strain: 7330 for biotransformation. The drug concentrations were measured before and after a 12-h incubation by liquid-chromatography-coupled mass spectrometry (LC–MS)
The conditions of data set [8]: bacteroides fragilis, 12 h, 2 µM.
Description: The drug is tested on Bacteroides fragilis strain: DS-208 for biotransformation. The drug concentrations were measured before and after a 12-h incubation by liquid-chromatography-coupled mass spectrometry (LC–MS)
The conditions of data set [9]: bacteroides eggerthii, 12 h, 2 µM.
Description: The drug is tested on Bacteroides eggerthii strain: DSM20697 for biotransformation. The drug concentrations were measured before and after a 12-h incubation by liquid-chromatography-coupled mass spectrometry (LC–MS)
Data set [10] can be described thus: The drug is tested on Ruminococcus lactaris strain: ATCC29176 for biotransformation. The drug concentrations were measured before and after a 12-h incubation by liquid-chromatography-coupled mass spectrometry (LC–MS). The following applies: 2 µM.
The nature of data set [11]: The drug is tested on Bacteroides xylanisolvens strain: DSM18836 for biotransformation. The drug concentrations were measured before and after a 12-h incubation by liquid-chromatography-coupled mass spectrometry (LC–MS). The following applies: 2 µM.
For data set [12] the following is noted: bacteroides fragilis, 12 h, 2 µM. This is another data set of the same source.
Description: The drug is tested on Bacteroides fragilis strain: NCTC 9343 for biotransformation. The drug concentrations were measured before and after a 12-h incubation by liquid-chromatography-coupled mass spectrometry (LC–MS)
The conditions of data set [13]: bacteroides stercoris, 12 h, 2 µM.
Description: The drug is tested on Bacteroides stercoris strain: ATCC43183 for biotransformation. The drug concentrations were measured before and after a 12-h incubation by liquid-chromatography-coupled mass spectrometry (LC–MS)
For data set [14] the following is noted: bacteroides thetaiotaomicron, 12 h, 2 µM. The source holds these as a separate data set.
Description: The drug is tested on Bacteroides thetaiotaomicron strain: VPI-5482 for biotransformation. The drug concentrations were measured before and after a 12-h incubation by liquid-chromatography-coupled mass spectrometry (LC–MS)
Data set [15] is described as follows: The drug is tested on Anaerotruncus colihominis strain: DSM17241 for biotransformation. The drug concentrations were measured before and after a 12-h incubation by liquid-chromatography-coupled mass spectrometry (LC–MS). The note with it: 2 µM.
The nature of data set [16]: The drug is tested on Providencia rettgeri strain: DSM1131 for biotransformation. The drug concentrations were measured before and after a 12-h incubation by liquid-chromatography-coupled mass spectrometry (LC–MS). In kind it is ADME. The arrangement: dose 2 uM, timepoint 0 vs 12 hours. The note with it: 2 µM.
The conditions of data set [17]: bacteroides intestinalis, 12 h, 2 µM.
Description: The drug is tested on Bacteroides intestinalis strain: DSM17393 for biotransformation. The drug concentrations were measured before and after a 12-h incubation by liquid-chromatography-coupled mass spectrometry (LC–MS)
Data set [18] can be described thus: The drug is tested on Bacteroides vulgatus strain: ATCC8482 for biotransformation. The drug concentrations were measured before and after a 12-h incubation by liquid-chromatography-coupled mass spectrometry (LC–MS). The note with it: phocaeicola vulgatus, 2 µM.
For data set [19] the following is noted: parabacteroides johnsonii, 12 h, 2 µM.
Description: The drug is tested on Parabacteroides johnsonii strain: DSM18315 for biotransformation. The drug concentrations were measured before and after a 12-h incubation by liquid-chromatography-coupled mass spectrometry (LC–MS)
Data set [20] in a line: The drug is tested on Clostridium asparagiforme strain: DSM15981 for biotransformation. The drug concentrations were measured before and after a 12-h incubation by liquid-chromatography-coupled mass spectrometry (LC–MS). The format is ADME. The arrangement: dose 2 uM, timepoint 0 vs 12 hours. The following applies: enterocloster asparagiformis, 2 µM.

For the compound `CCN(CC)CCNC(=O)c1cc(Cl)c(N)cc1OC` [METOCLOPRAMIDE], the “Bacterial Biotransformation” value in data set [1], in [2], in [3], in data set [4], in data set [5] and in data set [6] was “Compound NOT metabolized” each time. Moreover, the “Bacterial Biotransformation” value in data set [7], in [8], in data set [9], in [10], in data set [11] and in data set [12] was “Compound NOT metabolized” each time. In addition, the “Bacterial Biotransformation” value in [13], in data set [14], in [15], in data set [16], in data set [17] and in data set [18] was “Compound NOT metabolized” in each case. For the same compound, the “Bacterial Biotransformation” value in [19] is “Compound NOT metabolized”.
For `Cc1ccnc2c1NC(=O)c1cccnc1N2C1CC1` [NEVIRAPINE], the “Bacterial Biotransformation” value in data set [1], in [2], in [3], in data set [4], in data set [5] and in data set [6] was “Compound NOT metabolized” throughout. Besides, the “Bacterial Biotransformation” value was “Compound NOT metabolized” in data set [7]; “Compound metabolized” in data set [8]; “Compound NOT metabolized” in data set [9]; “Compound NOT metabolized” in data set [10]; “Compound NOT metabolized” in data set [11]; “Compound NOT metabolized” in data set [12]. In addition, the “Bacterial Biotransformation” value in data set [13], in [14], in data set [15], in [16], in data set [17] and in data set [18] was “Compound NOT metabolized” throughout. The “Bacterial Biotransformation” value in data set [19] is “Compound NOT metabolized”.
With `CN1CCN2c3ccccc3Cc3ccccc3C2C1` (centres undefined) [MIANSERIN], the “Bacterial Biotransformation” value in data set [20], in [1], in [2], in data set [3], in data set [4] and in data set [5] was “Compound NOT metabolized” in each case. Also, the “Bacterial Biotransformation” value in [6], in data set [7], in data set [8], in data set [9], in data set [10] and in data set [12] was “Compound NOT metabolized” each time. For the same compound, the “Bacterial Biotransformation” value in data set [13], in data set [15] and in data set [17] was “Compound NOT metabolized” each time.
For the compound `CC(=O)OCC(CCn1cnc2cnc(N)nc21)COC(C)=O` [FAMCICLOVIR], the “Bacterial Biotransformation” value was “Compound NOT metabolized” in data set [1]; “Compound metabolized” in data set [2]; “Compound metabolized” in [3]; “Compound metabolized” in data set [4]; “Compound NOT metabolized” in data set [5]; “Compound NOT metabolized” in [6]. Besides, the “Bacterial Biotransformation” value in [7] was “Compound metabolized”; in data set [8] it was “Compound metabolized”; in data set [9], “Compound metabolized”; in data set [10], “Compound NOT metabolized”; in data set [11] it was “Compound metabolized”; in data set [12], “Compound metabolized”. Moreover, the “Bacterial Biotransformation” value is “Compound metabolized” in data set [13]; “Compound metabolized” in [14]; “Compound NOT metabolized” in [15]; “Compound NOT metabolized” in data set [16]; “Compound metabolized” in data set [17]; “Compound metabolized” in data set [18]. Besides, the “Bacterial Biotransformation” value in data set [19] was “Compound metabolized”.
As to `CC(C)c1c(CN(C)C(C)Cc2ccccc2)n(C)n(-c2ccccc2)c1=O` (centres undefined) [FAMPROFAZONE], the “Bacterial Biotransformation” value in [1] was “Compound NOT metabolized”; in data set [2], “Compound metabolized”; in data set [3], “Compound metabolized”; in [4] it was “Compound NOT metabolized”; in [5], “Compound NOT metabolized”; in data set [7], “Compound metabolized”. In addition, the “Bacterial Biotransformation” value in data set [8] was “Compound metabolized”; in [9], “Compound metabolized”; in [10], “Compound NOT metabolized”; in data set [11], “Compound metabolized”; in data set [12], “Compound metabolized”; in data set [13], “Compound metabolized”. Further, the “Bacterial Biotransformation” value in [14] was “Compound metabolized”; in [16], “Compound NOT metabolized”; in data set [17] it was “Compound metabolized”; in data set [18], “Compound metabolized”; in [19], “Compound metabolized”.
In the case of `N#Cc1ccc(C(c2ccc(C#N)cc2)n2cncn2)cc1` [LETROZOLE], the “Bacterial Biotransformation” value in [1], in data set [2], in data set [3], in data set [4], in data set [5] and in data set [6] was “Compound NOT metabolized” in each case. For the same compound, the “Bacterial Biotransformation” value in data set [7], in [8], in data set [9], in data set [10], in [11] and in data set [12] was “Compound NOT metabolized” throughout. In addition, the “Bacterial Biotransformation” value in data set [13], in data set [14], in data set [15], in data set [16], in [17] and in data set [18] was “Compound NOT metabolized” each time. The “Bacterial Biotransformation” value in data set [19] was “Compound NOT metabolized”.
For `CCN(CC)CCOC(=O)C(Cc1cccc2ccccc12)CC1CCCO1.O=C(O)C(=O)O` (centres undefined) [NAFRONYL OXALATE], the “Bacterial Biotransformation” value in data set [20], in data set [2], in data set [4], in data set [5], in data set [6] and in data set [7] was “Compound NOT metabolized” in each case. For the same compound, the “Bacterial Biotransformation” value is “Compound NOT metabolized” in data set [8]; “Compound NOT metabolized” in [9]; “Compound NOT metabolized” in [10]; “Compound NOT metabolized” in [11]; “Compound metabolized” in data set [12]; “Compound NOT metabolized” in [13]. Also, the “Bacterial Biotransformation” value in [14] is recorded as “Compound NOT metabolized”; in [15], “Compound NOT metabolized”; in data set [17] it was “Compound NOT metabolized”; in data set [18], “Compound metabolized”.
